Measured values reported in article PMC5453931, “Cathelicidin-trypsin inhibitor loop conjugate represents a promising antibiotic candidate with protease stability” (Scientific Reports, 2017).
In brackets after ≈: the same amount, converted by molar mass. Where a SMILES comes first, the peptide text is derived from it. Bridges are numbered along the chain shown (N, C = ends).

Key:
E. coli 08040726 [1] = test: MIC, two-fold broth microdilution (second listing of the strain number); assay type: cell-based; settings: Gram-negative, MH broth, 37 °C, 18 h, mean of three independent experiments in duplicates
Procedure: (§1) A two-fold broth microdilution method described in our previous paper was used to determine the antimicrobial activities of parental and hybrid peptides. More than 30 strains including Gram-negative bacteria, Gram-positive bacteria and fungi were used in the current assay, in which the standard strains were stored in our lab and the clinical strains were collected from local hospitals. Briefly, bacteria were incubated in Mueller-Hinton broth (MH broth) at 37 °C to exponential phase and diluted to 10^6 CFU/mL. A serial dilution of peptide sample were prepared in 96-well microtiter plates (50 μL) and mixed with equal volume of microbial inoculums (50 μL). The plate was slowly shaken in the microbial incubator, and measured at A595 after incubation at 37 °C for 18 h. The minimal concentrations at which no microbial growth occurred were recorded as MIC (minimal inhibitory concentration) values. The traditional antibiotic ampicillin was used as positive control. The results are shown in an average of the MICs obtained from three independent experiments.

E. coli 08040726 [2] = test: Bacterial killing kinetic assay, colony counting; assay type: cell-based
Procedure: The bacterial killing kinetics of the hybrid peptides against E. coli 08040726 was determined by counting the changes in the viable bacterial clones after peptide treatment. The experiment was carried out according to the method described previously with minor modifications. Fresh colonies of the bacteria were incubated in MH broth at 37 °C for 12 h and diluted to 10^6 CFU/in fresh MH broth. The hybrid peptide was added to the bacterial suspension with a final concentration of 1x and 5x corresponding MICs, and incubated at 37 °C for 0, 10, 20, 30, 45, 60, 90, 120, and 180 mins. At each time point, aliquots (50 μL) were removed and diluted with fresh MH broth for 1000 times. […] of the dilutions were coated on MH agar plates, incubated overnight at 37 °C, and the viable colonies were counted. Ampicillin was used as positive control and sterile deionized water was used as negative control.

trypsin = test: Trypsin inhibition assay (NBLAN hydrolysis, Dixon method); assay type: biochemical; settings: 50 mM Tris–HCl pH 7.8, trypsin 0.1 mg/mL, 5 min pre-incubation at 37 °C, substrate NBLAN 48, 96, 192 μg/mL, 405 nm
Procedure: The inhibition effect on the hydrolysis of synthetic chromogenic substrate by trypsin was assayed in 50 mM Tris–HCl, pH 7.8 buffer at room temperature. The trypsin of final concentration of 0.1 mg/mL and different amounts of the hybrid peptide (final concentrations ranging from 0 to 0.16 μg/mL) were pre-incubated for 5 min at 37 °C. N-α-Benzoyl-DL-arginine p-nitroanilide hydrochloride (NBLAN) was used as a substrate for trypsin. The reaction was initiated by the addition of NBLAN with a final concentration of 48, 96 and 192 μg/mL, respectively. The formation of yellow product, p-nitroaniline was monitored continuously at 405 nm[61]. The inhibition constant Ki of the hybrid peptides were determined according to the method of Dixon (1953)[62].

E. Coli 08032813 = test: MIC, two-fold broth microdilution; assay type: cell-based; settings: Gram-negative; two-fold broth microdilution, MH broth, 37 °C, 18 h; mean of three independent experiments in duplicates
Procedure: as §1

[3] = tested on: Staphylococcus epidermidis; test: MIC, two-fold broth microdilution; assay type: cell-based; settings: Gram-positive; two-fold broth microdilution, MH broth, 37 °C, 18 h; mean of three independent experiments in duplicates
Procedure: as §1

Vibrio Parahaemolyticus = test: MIC, two-fold broth microdilution; assay type: cell-based; settings: Aquatic pathogenic bacteria; two-fold broth microdilution, 37 °C, 18 h; mean of three independent experiments in duplicates
Procedure: as §1

Proteus mirabilis 1376 = test: microbe, parasite or virus in culture; assay type: cell-based; settings: Gram-negative; two-fold broth microdilution, MH broth, 37 °C, 18 h; mean of three independent experiments in duplicates
Procedure: as §1

Vibrio brasiiensis = test: microbe, parasite or virus in culture; assay type: cell-based; settings: 18 h
Procedure: as §1

Vibrio cholerae = test: microbe, parasite or virus in culture; assay type: cell-based; settings: 18 h
Procedure: as §1

S. Aureus 08032810 = test: microbe, parasite or virus in culture; assay type: cell-based; settings: Gram-positive; two-fold broth microdilution, MH broth, 37 °C, 18 h; mean of three independent experiments in duplicates
Procedure: as §1

[4] = tested on: Enterococcus faecium 08052315; test: microbe, parasite or virus in culture; assay type: cell-based; settings: 08052315, 18 h
Procedure: as §1

[5] = tested on: Escherichia coli ATCC25922; test: microbe, parasite or virus in culture; assay type: cell-based; settings: ATCC25922, 18 h
Procedure: as §1

[6] = tested on: Bacillus subtilis 08042313; test: microbe, parasite or virus in culture; assay type: cell-based; settings: 08042313, 18 h
Procedure: as §1

[7] = tested on: Nocardia asteroides 08052412; test: microbe, parasite or virus in culture; assay type: cell-based; settings: 18 h
Procedure: as §1

S. Aureus 08032706 = test: microbe, parasite or virus in culture; assay type: cell-based; settings: Gram-positive; two-fold broth microdilution, MH broth, 37 °C, 18 h; mean of three independent experiments in duplicates
Procedure: as §1

E. Coli 08032823 = test: microbe, parasite or virus in culture; assay type: cell-based; settings: 08032823, 18 h
Procedure: as §1

Aeromonas sobria = test: microbe, parasite or virus in culture; assay type: cell-based; settings: 18 h
Procedure: as §1

Candida glabrata 08A802 = test: microbe, parasite or virus in culture; assay type: cell-based; settings: 08A802, 18 h
Procedure: as §1

Aeromonas veronii = test: microbe, parasite or virus in culture; assay type: cell-based; settings: 18 h
Procedure: as §1

S. Aureus 08032615 = test: microbe, parasite or virus in culture; assay type: cell-based; settings: Gram-positive; two-fold broth microdilution, MH broth, 37 °C, 18 h; mean of three independent experiments in duplicates
Procedure: as §1

Vibrio harveyi = test: microbe, parasite or virus in culture; assay type: cell-based; settings: 18 h
Procedure: as §1

Edwardsiella tarda = test: microbe, parasite or virus in culture; assay type: cell-based; settings: Aquatic pathogenic bacteria; two-fold broth microdilution, 37 °C, 18 h; mean of three independent experiments in duplicates
Procedure: as §1

[8] = tested on: Candida albicans 08030102; test: microbe, parasite or virus in culture; assay type: cell-based; settings: 08030102, 18 h
Procedure: as §1

S. Maltophilia 090223 = test: microbe, parasite or virus in culture; assay type: cell-based; settings: 090223, 18 h
Procedure: as §1

K. Pneumoniae 08040202 = test: microbe, parasite or virus in culture; assay type: cell-based; settings: Gram-negative; two-fold broth microdilution, MH broth, 37 °C, 18 h; mean of three independent experiments in duplicates
Procedure: as §1

P. Aeruginosa 08021015 = test: microbe, parasite or virus in culture; assay type: cell-based; settings: Gram-negative; two-fold broth microdilution, MH broth, 37 °C, 18 h; mean of three independent experiments in duplicates
Procedure: as §1

K. Pneumoniae 08031012 = test: microbe, parasite or virus in culture; assay type: cell-based; settings: Gram-negative; two-fold broth microdilution, MH broth, 37 °C, 18 h; mean of three independent experiments in duplicates
Procedure: as §1

[9] = tested on: established C. albicans biofilm; test: Biofilm disruption assay, established biofilm (XTT, PI/SYBR Green I); assay type: cell-based
Procedure: TIH3F that has the best antifungal activity among the four peptides was chosen to examine the effect on the C. albicans biofilm formation and the established biofilm using previously described method with minor modifications. In the biofilm inhibition assay, after the incubation at 35 °C, C. Albicans was diluted to 1 × 10^6 CFU/mL in RPMI-1640 medium. Then 2 mL culture was added to each well of 6-well plates with coverslips at the bottom, and incubated at 35 °C in a humid chamber for 3 h. Non-adherent cells were then washed away by PBS, and series concentrations of TIH3F (0, 1, 2, 4 μg/mL) were added into the plate, with amphotericin B as control. The formation of the biofilm was determined by the XTT Cell Proliferation and Cytotoxicity Kit (KeyGEN BioTECH, Nanjing, China) after 36-h incubation. In the biofilm disruption assay, the biofilm was preformed as described above but with a longer incubation time up to 72 h. Then TIH3F and amphotericin B of series concentrations (0, 2.5, 5, 10, 25, 50 μg/mL) was added after non-adherent cells were washed out. The measurement of remaining biofilm was then determined. In order to further confirm the antifungal effect of TIH3F against C. albicans encased in biofilms, the established biofilm was treated with TIH3F (0, 5, 50 μg/mL), washed three times with PBS, and finally stained with 1 mL 1000-fold diluted PI/SYBR Green I at 30 °C in the dark for 20 min. After washing with PBS, the plate was immediately photographed with fluorescence microscope.

SMILES: CC[C@H](C)[C@@H]1NC(=O)[C@H](CO)NC(=O)[C@H](CCCCN)NC(=O)[C@H]([C@@H](C)O)NC(=O)[C@H](Cc2c[nH]c3ccccc23)NC(=O)[C@@H](NC(=O)[C@H](Cc2ccccc2)NC(=O)[C@H](CCCCN)NC(=O)[C@H](CCCCN)NC(=O)[C@H](Cc2ccccc2)NC(=O)[C@H](C)NC(=O)[C@H](CCCNC(=N)N)NC(=O)[C@H](CCCNC(=N)N)NC(=O)[C@H](Cc2ccccc2)NC(=O)[C@H](CO)NC(=O)[C@H](CCCCN)NC(=O)[C@H](Cc2ccccc2)NC(=O)[C@H](Cc2ccccc2)NC(=O)[C@H](CCCNC(=N)N)NC(=O)[C@H](CCCCN)NC(=O)[C@H](Cc2ccccc2)NC(=O)[C@H](Cc2ccccc2)NC(=O)[C@@H](N)CCCCN)CSSC[C@@H](C(=O)O)NC(=O)[C@@H]2CCCN2C(=O)[C@H](CCCCN)NC(=O)[C@@H]2CCCN2C(=O)[C@@H]2CCCN2C1=O [H3TIF] (H-KFFKRFFKSFRRAFKKFCWTKSIPPKPC-OH; disulfide 18-28)
- MIC E. Coli 08040726 (second line with this strain number) (E. coli 08040726 [1]): — (no detectable activity in MIC assay in dose of 200 µg/mL or in trypsin inhibition assay at concentration of 160 μg/mL)
- time of killing toward E. coli (E. coli 08040726 [2]; 1xMIC): ≤ 2 h
- time of killing toward E. coli (E. coli 08040726 [2]; 5xMIC): ≤ 0.5 h
- Ki (trypsin): 6.5 µM
- MIC E. Coli 08032813 (E. Coli 08032813): — (no detectable activity in MIC assay in dose of 200 µg/mL or in trypsin inhibition assay at concentration of 160 μg/mL)
- MIC Staphylococcus epidermidis [3]: — (no detectable activity in MIC assay in dose of 200 µg/mL or in trypsin inhibition assay at concentration of 160 μg/mL)
- MIC Vibrio Parahaemolyticus (Vibrio Parahaemolyticus): 2.37 µg/mL (≈ 0.667 µM)
- MIC Proteus mirabilis 1376 (Proteus mirabilis 1376): — (no detectable activity in MIC assay in dose of 200 µg/mL or in trypsin inhibition assay at concentration of 160 μg/mL)
- MIC Vibrio brasiiensis (Vibrio brasiiensis): 4.69 µg/mL (≈ 1.32 µM)
- MIC Vibrio cholerae (Vibrio cholerae): 9.38 µg/mL (≈ 2.64 µM)
- MIC S. Aureus 08032810 (S. Aureus 08032810): — (no detectable activity in MIC assay in dose of 200 µg/mL or in trypsin inhibition assay at concentration of 160 μg/mL)
- MIC Enterococcus faecium 08052315 [4]: 9.38 µg/mL (≈ 2.64 µM)
- MIC Escherichia coli ATCC25922 [5]: 37.5 µg/mL (≈ 10.5 µM)
- MIC Bacillus subtilis 08042313 [6]: 37.5 µg/mL (≈ 10.5 µM)
- MIC Nocardia asteroides 08052412 [7]: 4.69 µg/mL (≈ 1.32 µM)
- MIC S. Aureus 08032706 (S. Aureus 08032706): — (no detectable activity in MIC assay in dose of 200 µg/mL or in trypsin inhibition assay at concentration of 160 μg/mL)
- MIC E. Coli 08032823 (E. Coli 08032823): 37.5 µg/mL (≈ 10.5 µM)
- MIC Aeromonas sobria (Aeromonas sobria): 18.75 µg/mL (≈ 5.27 µM)
- MIC Candida glabrata 08A802 (Candida glabrata 08A802): 9.38 µg/mL (≈ 2.64 µM)
- MIC Aeromonas veronii (Aeromonas veronii): 9.38 µg/mL (≈ 2.64 µM)
- MIC S. Aureus 08032615 (S. Aureus 08032615): — (no detectable activity in MIC assay in dose of 200 µg/mL or in trypsin inhibition assay at concentration of 160 μg/mL)
- MIC Vibrio harveyi (Vibrio harveyi): 18.75 µg/mL (≈ 5.27 µM)
- MIC Edwardsiella tarda (Edwardsiella tarda): — (no detectable activity in MIC assay in dose of 200 µg/mL or in trypsin inhibition assay at concentration of 160 μg/mL)
- MIC Candida albicans 08030102 [8]: 4.69 µg/mL (≈ 1.32 µM)
- MIC S. Maltophilia 090223 (S. Maltophilia 090223): 4.69 µg/mL (≈ 1.32 µM)
- MIC K. Pneumoniae 08040202 (K. Pneumoniae 08040202): — (no detectable activity in MIC assay in dose of 200 µg/mL or in trypsin inhibition assay at concentration of 160 μg/mL)
- MIC P. Aeruginosa 08021015 (P. Aeruginosa 08021015): — (no detectable activity in MIC assay in dose of 200 µg/mL or in trypsin inhibition assay at concentration of 160 μg/mL)
- MIC K. Pneumoniae 08031012 (K. Pneumoniae 08031012): — (no detectable activity in MIC assay in dose of 200 µg/mL or in trypsin inhibition assay at concentration of 160 μg/mL)
- damage of established C. albicans biofilm ([9]; 5 μg/mL, biofilm preformed 72 h, XTT metabolic activity, Fig. 2B): evident antifungal activity
- killing of C. albicans in preformed biofilm ([9]; 50 μg/mL, PI/SYBR Green I staining, fluorescence microscopy, Fig. 2C): destroy all of the cell membranes
